From US20250026721A1, “COMPOUNDS AND METHODS FOR MODULATING RAS-PI3K” (Vividion Therapeutics, Inc., priority 2023, published 2025)

Experiments:
[1] = test system: pAKT(S473) in FaDu cell line; experiment: In vitro Phospho-AKT(S473) HTRF analysis in FaDu cells; format: cell-based; details: Homo sapiens, 0.5 h; for IC50: FaDu cells, 30 minutes at 37° C.; for Emax: FaDu, read-out: FaDu pAKT Imax % control
How it was run: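 FaDu or H358 cells were plated overnight in medium with 1% FBS, then exposed to a compound dose response for 30 minutes at 37° C. Phospho-AKT(S473) levels were measured by HTRF.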

[2] = molecular target: T1, PIK3CA (Homo sapiens, UniProt P42336); experiment: In vitro ELISA target engagement assay for PIK3CA in Jurkat cellular lysate (competition with PIK3CA Biotin Probe); format: binding; details: 1 hour at rt, then 500 nM PIK3CA Biotin Probe, read-out: Elisa Target Engagement Assay (TE50)
T1 construct: endogenous in cells; host or cells: Jurkat cell lysate
T1 sequence (P42336 whole entry): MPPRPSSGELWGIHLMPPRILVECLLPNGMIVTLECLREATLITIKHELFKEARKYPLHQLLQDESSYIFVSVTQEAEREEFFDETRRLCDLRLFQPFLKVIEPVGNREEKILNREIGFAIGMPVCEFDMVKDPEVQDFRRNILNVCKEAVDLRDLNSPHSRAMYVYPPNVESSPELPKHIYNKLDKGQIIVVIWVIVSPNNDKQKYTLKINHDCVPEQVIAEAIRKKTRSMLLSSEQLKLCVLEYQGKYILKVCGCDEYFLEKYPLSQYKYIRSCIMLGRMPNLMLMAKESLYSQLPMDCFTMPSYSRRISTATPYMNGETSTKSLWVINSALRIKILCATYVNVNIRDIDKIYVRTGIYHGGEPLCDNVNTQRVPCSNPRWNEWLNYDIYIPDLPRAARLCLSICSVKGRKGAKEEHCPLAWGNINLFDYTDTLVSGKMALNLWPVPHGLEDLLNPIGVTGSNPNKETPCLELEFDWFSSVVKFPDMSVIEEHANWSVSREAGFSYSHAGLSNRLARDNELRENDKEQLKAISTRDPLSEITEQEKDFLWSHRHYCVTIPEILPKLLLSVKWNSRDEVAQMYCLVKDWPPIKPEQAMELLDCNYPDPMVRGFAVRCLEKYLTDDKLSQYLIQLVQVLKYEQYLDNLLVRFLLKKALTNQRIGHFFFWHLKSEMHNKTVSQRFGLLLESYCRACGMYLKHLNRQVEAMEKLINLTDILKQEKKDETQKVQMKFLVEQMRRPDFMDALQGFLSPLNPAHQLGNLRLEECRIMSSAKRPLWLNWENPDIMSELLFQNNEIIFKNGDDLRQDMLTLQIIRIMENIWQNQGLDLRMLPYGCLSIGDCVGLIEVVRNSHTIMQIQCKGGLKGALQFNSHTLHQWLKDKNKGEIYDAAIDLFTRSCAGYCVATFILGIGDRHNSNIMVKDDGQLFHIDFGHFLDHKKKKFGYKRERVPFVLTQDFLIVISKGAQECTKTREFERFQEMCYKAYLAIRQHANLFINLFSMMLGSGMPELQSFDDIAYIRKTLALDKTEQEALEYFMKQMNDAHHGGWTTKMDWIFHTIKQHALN
T1 sequence (P27986 whole entry partner): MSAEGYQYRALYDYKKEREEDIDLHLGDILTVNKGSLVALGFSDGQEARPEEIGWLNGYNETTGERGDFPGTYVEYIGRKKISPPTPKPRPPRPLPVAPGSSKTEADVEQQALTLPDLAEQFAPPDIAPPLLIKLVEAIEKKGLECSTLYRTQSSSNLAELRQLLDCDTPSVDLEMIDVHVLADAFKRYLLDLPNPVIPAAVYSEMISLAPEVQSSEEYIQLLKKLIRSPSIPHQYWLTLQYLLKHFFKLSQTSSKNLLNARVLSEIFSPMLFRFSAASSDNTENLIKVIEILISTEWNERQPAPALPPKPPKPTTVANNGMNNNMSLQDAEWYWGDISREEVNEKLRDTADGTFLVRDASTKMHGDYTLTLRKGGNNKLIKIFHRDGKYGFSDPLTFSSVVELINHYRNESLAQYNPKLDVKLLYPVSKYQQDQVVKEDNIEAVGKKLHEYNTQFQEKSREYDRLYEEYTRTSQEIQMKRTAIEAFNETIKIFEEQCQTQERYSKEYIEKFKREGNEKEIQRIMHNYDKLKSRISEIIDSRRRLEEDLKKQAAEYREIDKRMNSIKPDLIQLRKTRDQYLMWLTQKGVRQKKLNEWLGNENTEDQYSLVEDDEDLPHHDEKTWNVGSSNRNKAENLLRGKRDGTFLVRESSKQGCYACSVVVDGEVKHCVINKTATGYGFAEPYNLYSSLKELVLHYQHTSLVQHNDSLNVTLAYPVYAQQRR
How it was run: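 Competition format in Jurkat lysate: compound (serial dilutions, top 200 μM) for 1 h at rt, then 500 nM final biotinylated PIK3CA probe for 1 h at rt. Sandwich ELISA with capture antibody and Neutravidin-HRP luminescence read-out measured probe-labelled PIK3CA, giving TE50.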

[3] = test system: pAKT(S473) in H358 cell line; experiment: In vitro Phospho-AKT(S473) HTRF analysis in H358 cells; format: cell-based; details: Homo sapiens, NCI-H358, 0.5 h; for IC50: H358 cells, 30 minutes at 37° C.; for Emax: read-out: H358 pAKT Imax % control
Method: Example 5. In Vitro Phosgho-AKT(S473) Analysis
Functional activity of the compounds to inhibit pAKT were assessed in FaDu or H358 cell lines as indicated below.
• Complete Media • FBS, Corning catalog #35-010-CV • Anti-Anti, Gibco catalog #15240-062 • 96 well plate, Corning catalog #3610 • TrypLE, Gibco catalog #12604013 • Phospho-AKT(S473) HTRF kit, Cisbio catalog #64AKSPET
Cells were detached from the tissue culture flask with TrypLE. The cells were pelleted at 500×g for 5 min, TrypLe was removed and then resuspended in the necessary volume of media+1% FBS to give the appropriate cell density (17,500 cells/mL for FaDu; 20,000 cells/mL for H358). 100 μL of cell suspension/well was dispensed into the 96-well plate while keeping the outer wells of the plate free of cells and filled with PBS to prevent evaporation of interior wells. The plate was incubated at 37° C. and allowed to adhere overnight. The cells were treated with a dose response of compound and incubated at 37° C. for 30 minutes. The cells were then processed and pAKT(S473) levels were assessed following the specifications of the Cisbio HTRF kit.

SMILES | IC50 [1] | IC50 [2] | IC50 [3] | Emax [1] | Emax [3]
C[C@H](/C=C\S(C)(=O)=O)NC(=O)[C@@]1(F)CCCN(C(=O)[C@H]2CN(CC(F)F)C[C@H]2c2ccccc2Cl)CC1 [Compound 197, (R)-1-((3R,4R)-4-(2-chlorophenyl)-1-(2,2-difluoroethyl)pyrrolidine-3-carbonyl)-4-fluoro-N-((R,Z)-4-(methylsulfonyl)but-3-en-2-yl) azepane-4-carboxamide] | 129 nM | 134 nM | 103 nM | 89% | 91.4%
C[C@@H](/C=C\S(C)(=O)=O)NC(=O)C1(F)CCN(S(=O)(=O)c2cnc(C(F)(F)F)cc2-c2ccccc2Cl)CC1 [Compound 208, (S,Z)-1-((4-(2-chlorophenyl)-6-(trifluoromethyl)pyridin-3-yl)sulfonyl)-4-fluoro-N-(4-(methylsulfonyl)but-3-en-2-yl)piperidine-4-carboxamide] | 88.2 nM | 53.7 nM | 81.6 nM | – | 95.9%

Continued, in another order:

IC50 [1] | IC50 [2] | IC50 [3] | SMILES | Emax [1] | Emax [3]
78.9 nM | 92.7 nM | 82.6 nM | C[C@H](/C=C\S(C)(=O)=O)NC(=O)[C@@]1(F)CCCN(C(=O)[C@H]2CN(CC(F)(F)F)C[C@H]2c2c(F)cccc2Cl)CC1 [Compound 171, (R)-1-((3R,4R)-4-(2-chloro-6-fluorophenyl)-1-(2,2,2-trifluoroethyl)pyrrolidine-3-carbonyl)-4-fluoro-N—((R,Z)-4-(methylsulfonyl)but-3-en-2-yl)azepane-4-carboxamide] | 97.8% | 101%
113 nM | 190 nM | 123 nM | C[C@H](/C=C\S(C)(=O)=O)NC(=O)[C@@]1(F)CCCN(C(=O)[C@H]2CN(CC(F)(F)Cl)C[C@H]2c2ccccc2Cl)CC1 [Compound 195, (R)-1-((3R,4R)-1-(2-chloro-2,2-difluoroethyl)-4-(2-chlorophenyl)pyrrolidine-3-carbonyl)-4-fluoro-N-((R,Z)-4-(methylsulfonyl)but-3-en-2-yl)azepane-4-carboxamide] | 96.9% | 85%
450 nM | 530 nM | 329 nM | C[C@H](/C=C\S(C)(=O)=O)NC(=O)[C@@]1(F)CCCN(C(=O)[C@H]2CN(CCC(F)(F)F)C[C@H]2c2ccccc2Cl)CC1 [Compound 196, (R)-1-((3R,4R)-4-(2-chlorophenyl)-1-(3,3,3-trifluoropropyl)pyrrolidine-3-carbonyl)-4-fluoro-N-((R,Z)-4-(methylsulfonyl)but-3-en-2-yl)azepane-4-carboxamide] | 86.4% | 96.3%
